# Biological target: STING (Homo sapiens, UniProt Q86WV6, G230A/H232R/R293Q/R71H)
# Assay: STING reporter assay: THP1-Dual KO-IFNAR2 cells stimulated with 2′3′cGAMP, luciferase reporter activity
# Assay type: cell-based
# Details: 15 μM 2′3′cGAMP, 24h, class symbols
# Experimental: STING pathway activation by the compounds described herein were measured using THP1-Dual™ cells (KO-IFNAR2).
# THP1-Dual™ KO-IFNAR2 Cells (obtained from invivogen) were maintained in RPMI, 10% FCS, 5 ml P/S, 2 mM L-glut, 10 mM Hepes, and 1 mM sodium pyruvate. Compounds were spotted in empty 384 well tissue culture plates (Greiner 781182) by Echo for a final concentration of 0.0017-100 μM. Cells were plated into the TC plates at 40 μL per well, 2×10E6 cells/mL. For activation with STING ligand, 2′3′cGAMP (MW 718.38, obtained from Invivogen), was prepared in Optimem media.
# The following solutions were prepared for each 1×384 plate: • Solution A: 2 mL Optimem with one of the following stimuli: • 60 uL of 10 mM 2′3′cGAMP ->150 μM stock • Solution B: 2 mL Optimem with 60 μL Lipofectamine 2000->Incubate 5 min at RT
# 2 mL of solution A and 2 ml Solution B was mixed and incubated for 20 min at room temperature (RT). 20 uL of transfection solution (A+B) was added on top of the plated cells, with a final 2′3′cGAMP concentration of 15 μM. The plates were then centrifuged immediately at 340 g for 1 minute, after which they were incubated at 37° C., 5% CO2, >98% humidity for 24h. Luciferase reporter activity was then measured. EC50 values were calculated by using standard methods known in the art.
# Luciferase reporter assay: 10 μL of supernatant from the assay was transferred to white 384-plate with flat bottom and squared wells. One pouch of QUANTI-Luc™ Plus was dissolved in 25 mL of water. 100 μL of QLC Stabilizer per 25 mL of QUANTI-Luc™ Plus solution was added. 50 μL of QUANTI-Luc™ Plus/QLC solution per well is then added. Luminescence is measured on a Platereader (e.g., Spectramax I3X (Molecular Devices GF3637001)).
# Luciferase reporter activity was then measured. EC50 values were calculated by using standard methods known in the art.
# Chain of STING (Q86WV6 whole entry R71H/G230A/H232R/R293Q): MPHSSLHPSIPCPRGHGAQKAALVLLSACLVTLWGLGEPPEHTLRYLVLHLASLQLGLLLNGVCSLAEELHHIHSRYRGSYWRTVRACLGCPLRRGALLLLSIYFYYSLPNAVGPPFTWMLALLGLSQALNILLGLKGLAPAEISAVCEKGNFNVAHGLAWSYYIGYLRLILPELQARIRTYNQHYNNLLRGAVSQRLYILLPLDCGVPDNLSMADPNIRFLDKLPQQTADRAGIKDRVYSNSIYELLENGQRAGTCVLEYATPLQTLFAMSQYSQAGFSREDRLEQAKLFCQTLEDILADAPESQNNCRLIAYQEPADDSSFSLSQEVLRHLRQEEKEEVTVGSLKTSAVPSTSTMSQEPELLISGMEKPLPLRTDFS
row,EC50 [µM],SMILES
1,0.2 to 1,"FC(F)(F)c1cccc2nc(Nc3ccc4cc[nH]c4c3)ccc12 [Compound 574, N-(1H-indol-6-yl)-5-(trifluoromethyl)quinolin-2-amine]"
2,0.2 to 1,FC(F)(F)c1ccc2ccc(Nc3cc(Cl)c4cc[nH]c4c3)nc2c1 [Compound 604]
3,0.04 to 0.2,O=C(Nc1ccc(C2CC(F)(F)C2)c(F)c1)Nc1cc(Cl)c2cc[nH]c2c1 [Compound 548]
4,5 to 100,"Cc1nc(Nc2ccc3cc[nH]c3c2)ccc1Nc1ccc2cc[nH]c2c1 [Compound 583, N2,N5-bis(1H-indol-6-yl)-6-methylpyridine-2,5-diamine]"
5,5 to 100,Cc1cccc(CNC(=O)Nc2ccc3cc[nH]c3c2)c1 [Compound 225]
6,0.04 to 0.2,N#Cc1cc(NC(=O)Nc2ccc(C(F)(F)F)cc2)cc2[nH]ccc12 [Compound 245]
7,1 to 5,"CC(C)(C)c1cccc(Nc2ccc3cc[nH]c3c2)n1 [Compound 420, N-(6-(tert-butyl)pyridin-2-yl)-1H-indol-6-amine]"
8,5 to 100,O=C(Nc1cccc(OC(F)F)c1)Nc1ccc2[nH]ccc2c1 [Compound 343]
9,5 to 100,CN(C(=O)Nc1ccc(C(F)(F)F)cc1)c1ccc2cc[nH]c2c1 [Compound 264]
10,0.2 to 1,Cc1cc2ccc(C(F)(F)F)cc2nc1Nc1ccc2cc[nH]c2c1 [Compound 565]
11,1 to 5,"FC(F)(F)Oc1ccc2c(Cl)cc(Nc3ccc4cc[nH]c4c3)nc2c1 [Compound 576, 4-chloro-N-(1H-indol-6-yl)-7-(trifluoromethoxy)quinolin-2-amine]"
12,5 to 100,O=C(Nc1ccc(C(F)(F)F)cc1)Nc1cc2[nH]ccc2cn1 [Compound 110]
13,1 to 5,O=C(NCCCc1cncc(C(F)(F)F)c1)Nc1ccc2cc[nH]c2c1 [Compound 177]
14,1 to 5,Cc1ccccc1CNC(=O)Nc1ccc2cc[nH]c2c1 [Compound 224]
15,1 to 5,O=C(NCCc1cccc(Cl)c1)Nc1ccc2cc[nH]c2c1 [Compound 210]
16,0.2 to 1,Cc1ccc2nc(Nc3ccc4cc[nH]c4c3)ccc2c1C(F)(F)F [Compound 549]
17,0.2 to 1,Cc1cc(NC(=O)Nc2cc(Cl)c3cc[nH]c3c2)cnc1N1CCC(F)(F)CC1 [Compound 500]
18,1 to 5,O=C(Nc1ccc2cc[nH]c2c1)Nc1ccc(N2CCC(F)(F)CC2)cn1 [Compound 249]

row,EC50 [µM],SMILES
1,5 to 100,CN(C)S(=O)(=O)c1ccc(NC(=O)Nc2ccc3cc[nH]c3c2)cc1 [Compound 202]
2,5 to 100,O=C(Nc1cccc(C(F)(F)F)c1)Nc1ccc2[nH]ccc2c1 [Compound 374]
3,5 to 100,"CC(C)(C)c1ccnc(Nc2ccc3cc[nH]c3c2)c1 [Compound 402, N-(4-(tert-butyl)pyridin-2-yl)-1H-indol-6-amine]"
4,5 to 100,"Cn1ccc2ccc(Nc3ccc4ccc(C(F)(F)F)cc4n3)cc21 [Compound 608, N-(1-methyl-1H-indol-6-yl)-7-(trifluoromethyl)quinolin-2-amine]"
5,0.2 to 1,O=C(NCc1cc(Cl)cc(C(F)(F)F)c1)Nc1cc(Cl)c2cc[nH]c2c1 [Compound 536]
6,5 to 100,"c1cc2c(c(Nc3ccc4cc[nH]c4c3)n1)CCCC2 [Compound 431, N-(1H-indol-6-yl)-5,6,7,8-tetrahydroisoquinolin-1-amine]"
7,5 to 100,CN(C(=O)Nc1ccc(C(F)(F)F)cc1)c1ccc2[nH]ccc2c1 [Compound 376]
8,5 to 100,CN(C)Cc1cc(NC(=O)Nc2ccc(C(F)(F)F)cc2)cc2[nH]ccc12 [Compound 546]
9,0.2 to 1,O=C(Nc1cc(F)cc(C(F)(F)F)c1)Nc1ccc2c(F)c[nH]c2c1 [Compound 535]
10,5 to 100,O=C(Nc1ccc2cc[nH]c2c1)NC1CCC2(CCCCC2)OC1 (stereo not drawn) [Compound 243]
11,5 to 100,N#Cc1c[nH]c2cc(NC(=O)Nc3cccc(C(F)(F)F)c3)ccc12 [Compound 539]
12,1 to 5,CC(Cc1cccc(C(F)(F)F)c1)NC(=O)Nc1ccc2cc[nH]c2c1 (stereo not drawn) [Compound 172]
13,0.2 to 1,Fc1ccc2nc(Nc3ccc4cc[nH]c4c3)ccc2c1C(F)(F)F [Compound 550]
14,0.2 to 1,O=C(Nc1cc(F)cc(C(F)(F)F)c1)Nc1cc(Cl)c2cc[nH]c2c1 [Compound 153]
15,0.2 to 1,O=C(Nc1cccc(C(F)(F)F)c1)Nc1ccc2cc[nH]c2c1 [Compound 272]
16,0.2 to 1,CC(C)c1ccc(NC(=O)Nc2ccc3cc[nH]c3c2)cc1 [Compound 234]
17,5 to 100,O=C(NCCOc1cccnc1)Nc1ccc2cc[nH]c2c1 [Compound 519]

# Same assay, conditions: 15 μM 2′3′cGAMP, 24h, numeric bounds
row,EC50 [µM],SMILES
1,> 7.38,Cc1c(NC(=O)Nc2ccc(C(F)(F)F)cc2)ccc2c(C#N)c[nH]c12 [Compound 526]
2,> 30,"c1cnc2c(Nc3ccc4cc[nH]c4c3)nccc2c1 [Compound 407, N-(1H-indol-6-yl)-1,7-naphthyridin-8-amine]"
3,> 30,O=C(Nc1cnc2ccc(C(F)(F)F)cc2c1)Nc1ccc2[nH]ccc2c1 [Compound 286]
4,> 30,"CCNc1cccc(Nc2ccc3cc[nH]c3c2)n1 [Compound 398, N2-ethyl-N6-(1H-indol-6-yl)pyridine-2,6-diamine]"
5,> 30,O=C(Nc1ccc2cc[nH]c2c1)Nc1ccon1 [Compound 190]
6,> 30,"O=S(=O)(c1ccc(Nc2ccc3cc[nH]c3c2)nc1)N1CCCC1 [Compound 423, N-(5-(pyrrolidin-1-ylsulfonyl)pyridin-2-yl)-1H-indol-6-amine]"
7,> 30,Cn1cc(NC(=O)Nc2ccc3cc[nH]c3c2)cn1 [Compound 189]
8,> 30,"O=C1CCc2nc(Nc3ccc4cc[nH]c4c3)ccc21 [Compound 596, 2-[(1H-indol-6-yl)amino]-5H,6H,7H-cyclopenta[b]pyridin-5-one]"
9,> 30,O=C(Nc1cc(F)c(N2CCC(F)(F)CC2)c(F)c1)Nc1ccc2[nH]ccc2c1 [Compound 293]
10,> 30,"FC(F)Oc1ccc(Nc2ccc3cc[nH]c3c2)nc1 [Compound 413, N-(5-(difluoromethoxy)pyridin-2-yl)-1H-indol-6-amine]"
11,> 30,O=C(NCCSCc1c(Cl)cccc1Cl)Nc1ccc2[nH]ccc2c1 [Compound 349]
12,> 30,O=C(Nc1ccc(C(F)(F)F)cc1)Nc1cc(CO)c2cc[nH]c2c1 [Compound 157]
13,> 30,O=C(Nc1ccc2[nH]ccc2c1)NC1CCc2ccc(C(F)(F)F)cc21 (stereo not drawn) [Compound 317]
14,> 30,COC1CN(c2ncc(NC(=O)Nc3cc(Cl)c4cc[nH]c4c3)cc2C)C1 [Compound 498]
15,> 30,Cn1cc(-c2cc(NC(=O)Nc3ccc(C(F)(F)F)cc3)cc3[nH]ccc23)cn1 [Compound 197]
16,> 30,O=C(NCCc1ccccc1)Nc1ccc2cc[nH]c2c1 [Compound 187]
17,> 30,Cn1cc(-c2c[nH]c3cc(NC(=O)Nc4ccc(C(F)(F)F)cc4)ccc23)cn1 [Compound 545]

row,EC50 [µM],SMILES
1,> 30,N#Cc1ccc(CNC(=O)Nc2ccc3[nH]ccc3c2)c(C(F)(F)F)c1 [Compound 276]
2,> 30,CN(C)S(=O)(=O)c1ccc(NC(=O)Nc2ccc3[nH]ccc3c2)cc1 [Compound 292]
3,> 30,CCc1ccccc1NC(=O)Nc1ccc2cc[nH]c2c1 [Compound 229]
4,> 30,CCn1cc(CNC(=O)Nc2ccc3[nH]ccc3c2)cn1 [Compound 301]
5,> 30,"CN1CCC(COc2cnc(Nc3ccc4cc[nH]c4c3)nc2)CC1 [Compound 414, N-(5-((1-methylpiperidin-4-yl)methoxy)pyrimidin-2-yl)-1H-indol-6-amine]"
6,> 1.11,Cc1cc(NC(=O)Nc2ccc3c(F)c[nH]c3c2)cnc1N1CCC(F)(F)CC1 [Compound 499]
7,> 30,CN(C)S(=O)(=O)c1cccc(NC(=O)Nc2ccc3[nH]ccc3c2)c1 [Compound 312]
8,> 30,Cc1cc(C)nc(NC(=O)Nc2ccc3[nH]ccc3c2)c1 [Compound 335]
9,> 30,CCCCCNC(=O)Nc1ccc2[nH]ccc2c1 [Compound 328]
10,> 30,O=C(Nc1ccc(Cl)c(F)c1)Nc1ccc2[nH]ccc2c1 [Compound 341]
11,> 30,CCS(=O)(=O)c1ccc(CNC(=O)Nc2ccc3[nH]ccc3c2)cn1 [Compound 300]
12,> 30,CCS(=O)(=O)c1ccc(CNC(=O)Nc2ccc3cc[nH]c3c2)cn1 [Compound 179]
13,> 100,Cn1ccc2cc(NC(=O)Nc3ccc(C(F)(F)F)cc3)ccc21 [Compound 377]
14,> 30,"Fc1ccc2ccc(Nc3ccc4cc[nH]c4c3)nc2c1 [Compound 559, 7-fluoro-N-(1H-indol-6-yl)quinolin-2-amine]"
15,> 30,O=C(Nc1ccc2[nH]ccc2c1)Nc1ccon1 [Compound 334]
16,> 30,O=C(Nc1ccc(S(=O)(=O)N2CCCC2)cc1)Nc1ccc2[nH]ccc2c1 [Compound 284]
17,> 30,N#Cc1ccc(CNC(=O)Nc2ccc3cc[nH]c3c2)c(C(F)(F)F)c1 [Compound 159]

# From patent publication US20230092163A1, “COMPOUNDS AND COMPOSITIONS FOR TREATING CONDITIONS ASSOCIATED WITH STING ACTIVITY” (IFM Due, Inc., priority 2019, published 2023)
